Measurements as given in ChEMBL document CHEMBL1150205, “Justiciresinol, a new furanoid lignan from Justicia glauca” (1991).
≈ marks a conversion by molar mass, not a printed value.

Tests used:
Assay type in all cases: functional
Conditions in all cases: read-out: ED50 (the source's name)
[1] = tested on: A549; assay: Cytotoxicity against human A549 cells
[2] = tested on: MCF7; assay: Cytotoxicity against human MCF7 cells
[3] = tested on: HT-29; assay: Cytotoxicity against human HT-29 cells

COc1cc([C@H]2OC[C@H](Cc3cc(OC)c(O)c(OC)c3)[C@@H]2CO)ccc1O [JUSTICIRESINOL]
EC50 [1]: 31.3 µg/mL (≈ 80.2 µM)
EC50 [2]: 22.3 µg/mL (≈ 57.1 µM)
EC50 [3]: 18.3 µg/mL (≈ 46.9 µM)
